Measured values taken from patent publication US4200650A, “2-Amino-cyclopent-1-ene-1-thiocarboxylic acid-disulfides to treat noradrenergic malfunctions” (Richter Gedeon Vegyeszeti Gyar Rt., priority 1976, dated 1980).

What was measured:
dopamine-β-hydroxylase [1] = test: Determination of noradrenaline and dopamine levels of brain (dopamine-β-hydroxylase inhibiting effect); assay type: in vivo, male Wistar rats; settings: i.p.
Experimental: (§1) The dopamine-β-hydroxylase inhibiting effects of the new compounds according to the invention were examined by the following tests:
(§2) The tests were performed on male Wistar rats weighing 150 to 200 g. The dopamine-β-hydroxylase inhibiting effects of the compounds were evaluated by determining the change of noradrenaline, dopamine and adrenaline levels of the cerebrum, heart, spleen and adrenal gland. The serotonine and 5-hydroxy-indolylacetic acid levels of the cerebrum were also determined. The measurements were performed as follows:
(§3) The animals were decapitated, the cerebrum, heart, spleen and adrenal gland were removed quickly, and the organs were frozen by placing them onto a metal sheet cooled with dry ice. The frozen organs were stored for maximum one night at -20° C.
(§4) Determination of the noradrenaline, dopamine, serotonine and 5-hydroxy-indolylacetic acid contents of brain
The brains were homogenized in 10 parts by volume of 0.4 n perchloric acid. The homogenized mixture was stored at -20° C. overnight, thereafter it was thawed and centrifuged as described above. A sample of the homogenized mixture corresponding to 0.5 g of brain was removed, the pH of the sample was adjusted to 8.0±0.1 with 0.1 molar tris-buffer of the above composition, and the sample was processed as described above for the determination of the noradrenaline content of heart and spleen, with the difference that 1.5 ml of 0.05 n perchloric acid were applied as eluting agent. 0.5 ml of the eluate were applied to determine the noradrenaline and dopamine contents. The measurement was performed as described above, with the difference that samples of 0.5 ml were applied for the recording of the fluorescency of noradrenaline. The residua was placed for 50 minutes into a drying oven heated to 100° C., thereafter the sample was cooled with ice water, and the fluorescency of dopamine was recorded at wavelengths of 325 nm (excitation) and 380 nm (emission).
(§5) In a further test series the serotonine and 5-hydroxy-indolylacetic acid contents were also determined, beside the determination of the noradrenaline and dopamine content, from the same sample. In this instance the brains were homogenized in 10 ml of 75% ethanol, 0.2 ml of EDTA-Na2 and 5% of ascorbic acid were added to the homogenized mixtures, and the homogenized mixtures were maintained at -20° C. overnight. The mixtures were centrifuged as described above, and 5.0 ml samples of the supernatant were removed. The samples were diluted with equal volumes of distilled water, and poured onto ion exchange columns of 0.5×1.5 cm dimensions, filled with buffered Amberlite CG-30 (200 to 400 mesh). The columns were washed with 5 ml of distilled water followed by 1.0 ml of 0.2 n hydrochloric acid, and the first effluent and the aqueous wash were collected for the determination of 5-hydroxy-indolylacetic acid. Elution was continued with further 1.2 ml of 0.2 n hydrochloric acid in order to remove noradrenaline, dopamine and serotonine. Samples of 0.3 ml were used for the determinations.
(§6) Noradrenaline and dopamine were determined by the method of Shellenberger, modified as described above, whereas serotonine was determined by the method of Curzon et al. (Brit. J. Pharmacol. 39, 653/1970/). The basic method was modified as follows: A 0.5% solution of ortho-phthal(di)aldehyde in absolute ethanol was diluted with 10 n hydrochloric acid to 50-fold of its original volume, and 0.6 ml of the resulting 0.01% ortho-phthal(di)aldehyde solution were added immediately to 0.5 ml of the serotonine-containing sample. The sample was placed into a hot water bath for 10 minutes, thereafter cooled with tap water, and the fluorescency was recorded at wavelengths of 360 nm (excitation) and 490 nm (emission).
In the tests disulfiram, 2,2-dipyridyl, bis(1-methyl-4-homopiperazinyl-thriocaronyl)-disulfide, sodium diethyldithiocarbamate and N-phenyl-N'-(2-thiazolyl)-thiourea were applied as reference substances. […]

[2] = system: serotonine and 5-hydroxy-indolylacetic acid levels of the cerebrum; test: Determination of serotonine and 5-hydroxy-indolylacetic acid levels of brain; assay type: in vivo, male Wistar rats
Experimental: as §2, §3, §4, §5, §6
5-Hydroxy-indolylacetic acid was determined from the mixture of the first effluent and the aqueous wash. 10 ml of distilled water and 0.2 ml of concentrated hydrochloric acid were added to the mixture, and the sample was poured onto a 0.8×4.0 cm column filled with Sephadex G-10. The column was washed with 15 ml of 0.1 n hydrochloric acid followed by 1.8 to 2.0 ml of 0.02 n aqueous ammonia, and then 5-hydroxyindolylacetic acid was eluted with further 2.0 ml of aqueous ammonia. 0.5 ml samples were used in the measurements, and the determination was performed according to the method of Korf et al. (Biochem. Pharmacol. 20, 659/1971/).
(§7) In the tests disulfiram, 2,2-dipyridyl, bis(1-methyl-4-homopiperazinyl-thriocaronyl)-disulfide, sodium diethyldithiocarbamate and N-phenyl-N'-(2-thiazolyl)-thiourea were applied as reference substances. The values indicated in Table 1 are the percentages in relation to the amine levels of the controls measured in the same tests (± standard error). The statistical calculations were performed on a TPA/i type computer, using Student's t test.

dopamine-β-hydroxylase [3] = test: Determination of the noradrenaline content of heart; assay type: in vivo, male Wistar rats; settings: i.p.
Experimental: as §1, §2, §3
(§8) Determination of the noradrenaline content of heart and spleen
(§9) The organs were weighed in frozen state and then homogenized in 5.0 ml of 0.4 n perchloric acid containing 0.05% of EDTA-Naa and 0.1% of Na2 S2 O5. The homogenized mixtures were centrifuged as described above for the treatment of adrenal gland, the supernatants were decanted, and the pH was adjusted to 8.0±0.1 with a 0.1 molar tris buffer containing 20 g/l of NaOH and 25 g/l of EDTA-Na2. 100 mg of prepared Al2 O3 (Anton et al.: J. Pharm. Ther. 138, 360/1962/) were added to the samples, and the mixtures were shaken mechanically for 20 minutes. Thereafter Al2 O3 was washed with 2×10 ml of distilled water, and noradrenaline was eluted with 1.0 ml of 0.05 n perchloric acid. 0.5 ml samples of the eluate were applied for the determination of noradrenaline. Noradrenaline was determined according to the method of Shellenberger et al. (Anal. Biochem. 39, 356/1971/), with the following modifications of the basic procedure: 0.5 ml of 0.1 molar Na-K-phosphate buffer, containing 9 g/l of EDTA-Na2, were added to 0.5 ml of the eluate, and the catecholamines (noradrenaline in the examination of heart and spleen and noradrenaline and dopamine in the examination of the cerebrum) were oxidized with 0.1 ml of a 0.1 n iodine solution in 5% potassium iodide. After exactly 2 minutes oxidation was stopped by adding 0.25 ml of a 2.5% sodium sulfite solution in 4.4 n aqueous sodium hydroxide to the mixture. 2 minutes after the introduction of the alkaline sulfite solution 0.2 ml of concentrated acetic acid were added to the samples, upon which the pH decreased to 4.4 to 4.5 Thereafter the samples were placed for 5 minutes into a drying oven heated to 100° C., and then the samples were cooled with ice water. The fluorescency of noradrenaline was measured with an OPTON spectrophotometer at wavelengths of 380 nm (excitation) and 490 nm (emission).
as §7

dopamine-β-hydroxylase [4] = test: Determination of the adrenaline content of adrenal gland; assay type: in vivo, male Wistar rats; settings: i.p.
Experimental: as §1, §2, §3
Determination of the adrenaline content of adrenal gland
The adrenal glands were freed from fat and homogenized in 3.0 ml of ice-cold 0.4 n perchloric acid. The homogenized mixtures were centrifuged for 10 minutes at 0° C. with a speed of 3200 r.p.m. using a Janetzky K-70 type centrifuge. 0.05 ml samples were taken from the supernatant, and the adrenaline level was determined directly by the method of Laverty et al. (Anal. Biochem. 22, 269/1968/).
as §7

dopamine-β-hydroxylase [5] = settings: literature, cited from earlier work
dopamine-β-hydroxylase [6] = test: Determination of the noradrenaline content of spleen; assay type: in vivo, male Wistar rats; settings: i.p.
Experimental: as §1, §2, §3, §8, §9, §7

[7] = 200 mg/kg, 4 hours, ± standard error
[8] = i.p., 200 mg/kg, 4 hours, ± standard error
[9] = 50 mg/kg, 4 hours, ± standard error
[10] = 100 mg/kg, 4 hours, ± standard error
[11] = 200 mg/kg, 8 hours, ± standard error

CCN(CC)C(=S)SSC(=S)N(CC)CC [DS, bis(diethylthiocarbamoyl)-disulfide, reference compound]
Brain DA (dopamine) level, percentages in relation to the controls (dopamine-β-hydroxylase [1]; [7]): 111% | Brain NA (noradrenaline) level, percentages in relation to the controls (dopamine-β-hydroxylase [1]; [7]): 22.5% | Brain DA (dopamine) level, percentages in relation to the controls (dopamine-β-hydroxylase [1]; 400 mg/kg, 4 hours): 112% | Brain NA (noradrenaline) level, percentages in relation to the controls (dopamine-β-hydroxylase [1]; 400 mg/kg, 4 hours): 24.1% | Brain SE (serotonine) level, percentages in relation to the controls [2, 8]: 122% | Brain SE (serotonine) level, percentages in relation to the controls ([2]; i.p., 400 mg/kg, 4 hours): 117% | Heart NA (noradrenaline) level, percentages in relation to the controls (dopamine-β-hydroxylase [3]; [7]): 98% | Heart NA (noradrenaline) level, percentages in relation to the controls (dopamine-β-hydroxylase [3]; 400 mg/kg, 4 hours): 102% | Adrenal gland AD (adrenaline) level, percentages in relation to the controls (dopamine-β-hydroxylase [4]; [7]): 52% | Adrenal gland AD (adrenaline) level, percentages in relation to the controls (dopamine-β-hydroxylase [4]; 400 mg/kg, 4 hours): 66% | dopamine-β-hydroxylase inhibiting effects, in words (dopamine-β-hydroxylase [5]): strong dopamine-β-hydroxylase inhibiting effects

CN1CCCN(C(=S)SSC(=S)N2CCCN(C)CC2)CC1 [FLA-63, bis(1-methyl-4-homopiperazinyl)-thiocarbonyl-disulfide, reference compound]
Brain DA (dopamine) level, percentages in relation to the controls (dopamine-β-hydroxylase [1]; [9]): 118% | Brain NA (noradrenaline) level, percentages in relation to the controls (dopamine-β-hydroxylase [1]; [9]): 24.6% | Heart NA (noradrenaline) level, percentages in relation to the controls (dopamine-β-hydroxylase [3]; [9]): 96% | Spleen NA (noradrenaline) level, percentages in relation to the controls (dopamine-β-hydroxylase [6]; 50 mg/kg, 4 hours): 58% | Adrenal gland AD (adrenaline) level, percentages in relation to the controls (dopamine-β-hydroxylase [4]; [9]): 43% | dopamine-β-hydroxylase inhibition under in vivo conditions, in words (dopamine-β-hydroxylase [5]; in vivo): one of the most potent dopamine-β-hydroxylase inhibitors under in vivo conditions

CCCCNC1=C(C(=S)SSC(=S)C2=C(NCCCC)CCC2)CCC1 [Compound M-2, 2-(N-butyl)-amino-cyclopent-1-ene-thiocarboxylic aciddisulfide]
Brain DA (dopamine) level, percentages in relation to the controls (dopamine-β-hydroxylase [1]; [10]): 118.3±5.7% | Brain NA (noradrenaline) level, percentages in relation to the controls (dopamine-β-hydroxylase [1]; [10]): 80.1±4.3% | Brain DA (dopamine) level, percentages in relation to the controls (dopamine-β-hydroxylase [1]; [7]): 94.2±7.5% | Brain NA (noradrenaline) level, percentages in relation to the controls (dopamine-β-hydroxylase [1]; [7]): 70.9±5.2% | Brain DA (dopamine) level, percentages in relation to the controls (dopamine-β-hydroxylase [1]; [11]): 91.0±12.7% | Brain NA (noradrenaline) level, percentages in relation to the controls (dopamine-β-hydroxylase [1]; [11]): 81.6±7.3% | response vs control in vivo at 200 mg/kg ([2]; Rattus norvegicus, ip, 200 mg/kg, 8 hours, ± standard error, read-out: Brain 5-HIAA (5-hydroxy-indolylacetic acid) level, percentages in relation to the controls): 126 ± 7.1% | Heart NA (noradrenaline) level, percentages in relation to the controls (dopamine-β-hydroxylase [3]; [10]): 91.5±5.2% | Heart NA (noradrenaline) level, percentages in relation to the controls (dopamine-β-hydroxylase [3]; [7]): 108.5±9.4% | Heart NA (noradrenaline) level, percentages in relation to the controls (dopamine-β-hydroxylase [3]; [11]): 91.7±4.6% | Spleen NA (noradrenaline) level, percentages in relation to the controls (dopamine-β-hydroxylase [6]; [7]): 114.5±28.2% | Spleen NA (noradrenaline) level, percentages in relation to the controls (dopamine-β-hydroxylase [6]; [11]): 96.4±23.1% | Adrenal gland AD (adrenaline) level, percentages in relation to the controls (dopamine-β-hydroxylase [4]; [10]): 81.0±8.5% | Adrenal gland AD (adrenaline) level, percentages in relation to the controls (dopamine-β-hydroxylase [4]; [7]): 91.7±4.3% | Adrenal gland AD (adrenaline) level, percentages in relation to the controls (dopamine-β-hydroxylase [4]; [11]): 87.7±4.2%

c1ccc(-c2ccccn2)nc1 [2,2-D, 2,2-dipyridyl, reference compound]
Brain DA (dopamine) level, percentages in relation to the controls (dopamine-β-hydroxylase [1]; 37.5 mg/kg, 4 hours): 116% | Brain NA (noradrenaline) level, percentages in relation to the controls (dopamine-β-hydroxylase [1]; 37.5 mg/kg, 4 hours): 79.5% | Brain DA (dopamine) level, percentages in relation to the controls (dopamine-β-hydroxylase [1]; 75 mg/kg, 4 hours): 95% | Brain NA (noradrenaline) level, percentages in relation to the controls (dopamine-β-hydroxylase [1]; 75 mg/kg, 4 hours): 41.2% | Brain SE (serotonine) level, percentages in relation to the controls ([2]; i.p., 75 mg/kg, 4 hours): 100% | Heart NA (noradrenaline) level, percentages in relation to the controls (dopamine-β-hydroxylase [3]; 37.5 mg/kg, 4 hours): 104% | Heart NA (noradrenaline) level, percentages in relation to the controls (dopamine-β-hydroxylase [3]; 75 mg/kg, 4 hours): 58% | Spleen NA (noradrenaline) level, percentages in relation to the controls (dopamine-β-hydroxylase [6]; 37.5 mg/kg, 4 hours): 100% | Adrenal gland AD (adrenaline) level, percentages in relation to the controls (dopamine-β-hydroxylase [4]; 37.5 mg/kg, 4 hours): 80% | Adrenal gland AD (adrenaline) level, percentages in relation to the controls (dopamine-β-hydroxylase [4]; 75 mg/kg, 4 hours): 63% | dopamine-β-hydroxylase inhibition under in vitro conditions, in words (dopamine-β-hydroxylase [5]; in vitro): effective under in vitro conditions

S=C(Nc1ccccc1)Nc1nccs1 [Compound U-14624, N-phenyl-N'-(2-thiazolyl)-thiourea, reference compound]
Brain DA (dopamine) level, percentages in relation to the controls (dopamine-β-hydroxylase [1]; [7]): 121% | Brain NA (noradrenaline) level, percentages in relation to the controls (dopamine-β-hydroxylase [1]; [7]): 31.6% | Brain 5-HIAA (5-hydroxy-indolylacetic acid) level, percentages in relation to the controls [2, 8]: 175% | Brain SE (serotonine) level, percentages in relation to the controls [2, 8]: 137% | Heart NA (noradrenaline) level, percentages in relation to the controls (dopamine-β-hydroxylase [3]; [7]): 106% | Spleen NA (noradrenaline) level, percentages in relation to the controls (dopamine-β-hydroxylase [6]; [7]): 111% | Adrenal gland AD (adrenaline) level, percentages in relation to the controls (dopamine-β-hydroxylase [4]; [7]): 72%
